From PubChem BioAssay AID298 (DTP/NCI, 2004) come the findings set out here.

The subject of the assay is MX-1 breast xenograft, intrarenal, nude mice, tumor weight. The assay is described as follows: NCI In Vivo Anticancer Drug Screen. Data for tumor model Human Mammary Carcinoma MX-1 Xenograft (intrarenal inoculation) in NU/NU BALB/C (nude) mice. As to conditions: endpoint: mean tumor weight change, higher = larger tumour. Summed up:
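T/C readout: treated-group measurement over vehicle-control measurement, using tumor size or survival in tumor-bearing mice.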
For orientation: Xenograft models place foreign cells or tissue in a host animal.

Where [1] appears, read: dose: 6.25 mg/kg/injection, schedule: Q04DX003 (ip), vehicle: saline.
Setting [2] is: dose: 12.5 mg/kg/injection, schedule: Q04DX003 (ip), vehicle: saline.
[3] abbreviates: dose: 25.0 mg/kg/injection, schedule: Q04DX003 (ip), vehicle: saline.
Where [4] appears, read: dose: 100.0 mg/kg/injection, schedule: Q04DX003 (ip), vehicle: saline with Tween-80.
[5] abbreviates: dose: 200.0 mg/kg/injection, schedule: Q04DX003 (ip), vehicle: saline with Tween-80.
Setting [6] is: dose: 150.0 mg/kg/injection, schedule: Q04DX003 (ip), vehicle: DMSO.
The mark [7] stands for this setting: dose: 300.0 mg/kg/injection, schedule: Q04DX003 (ip), vehicle: DMSO.
Where [8] appears, read: dose: 600.0 mg/kg/injection, schedule: Q04DX003 (ip), vehicle: DMSO.

Values joined by “and” are separate entries in the source; they are usually repeats but may differ in a detail not shown here. Equal values may be shown once. Results filed as inconclusive are left out.

In the case of `COc1cccc2c1C(CO)N1C(C#N)C3CC(C(=O)O)C(C1C2)N3C` (stereo not drawn), the T/C runs as follows: (dose: 3.75 mg/kg/injection, schedule: Q04DX003 (ip), vehicle: saline) 31 % of control; (dose: 6.25 mg/kg/injection, schedule: Q01DX010 (ip), vehicle: saline) -61 % of control; under setting [1], 9 % of control; (dose: 6.25 mg/kg/injection, schedule: Q04DX003 (ip), vehicle: suspension in saline) 10 % of control; (dose: 7.5 mg/kg/injection, schedule: Q04DX003 (ip), vehicle: saline) 40 % of control; (dose: 12.5 mg/kg/injection, schedule: Q01DX010 (ip), vehicle: saline) -100 % of control. For the same compound, the T/C under setting [2] is 17 % of control; the T/C (dose: 12.5 mg/kg/injection, schedule: Q04DX003 (ip), vehicle: suspension in saline) was 6 % of control; the T/C (dose: 15.0 mg/kg/injection, schedule: Q04DX003 (ip), vehicle: saline) was 38 % of control; the T/C (dose: 25.0 mg/kg/injection, schedule: Q01DX010 (ip), vehicle: saline) was -99 % of control; the T/C under setting [3] was 14 % of control; the T/C (dose: 25.0 mg/kg/injection, schedule: Q04DX003 (ip), vehicle: suspension in saline) is -48 % of control. The T/C (dose: 30.0 mg/kg/injection, schedule: Q04DX003 (ip), vehicle: saline) was 58 % of control; the T/C (dose: 50.0 mg/kg/injection, schedule: Q04DX003 (ip), vehicle: saline) is 2 % of control; the T/C (dose: 50.0 mg/kg/injection, schedule: Q04DX003 (ip), vehicle: suspension in saline) was -79 % of control; the T/C (dose: 60.0 mg/kg/injection, schedule: Q04DX003 (ip), vehicle: saline) was 13 % of control.

As for `O=C1CCC(=O)N1CO`, the T/C was 73 % of control (dose: 300.0 mg/kg/injection, schedule: Q04DX003 (sc), vehicle: saline) and 86 % of control (dose: 600.0 mg/kg/injection, schedule: Q04DX003 (sc), vehicle: saline).

With `OCCN1CCN(CC/C=C2/c3ccccc3Sc3ccc(C(F)(F)F)cc32)CC1`, the T/C was 65 % of control (dose: 30.0 mg/kg/injection, schedule: Q04DX003 (sc), vehicle: saline); 43 % of control and 44 % of control (dose: 60.0 mg/kg/injection, schedule: Q04DX003 (sc), vehicle: saline); 11 % of control and 33 % of control (dose: 120.0 mg/kg/injection, schedule: Q04DX003 (sc), vehicle: saline).

`CC(C)CCC(=O)c1ccoc1`: the T/C runs as follows: (dose: 0.75 mg/kg/injection, schedule: Q01DX010 (ip), vehicle: saline with Tween-80) 101 % of control; (dose: 1.5 mg/kg/injection, schedule: Q01DX010 (ip), vehicle: saline with Tween-80) 103 % of control; (dose: 3.0 mg/kg/injection, schedule: Q01DX010 (ip), vehicle: saline with Tween-80) 84 % of control.

Turning to `CNC(=O)Sc1ccc(C)c(N(C)C)c1`, the T/C is, setting by setting: (dose: 150.0 mg/kg/injection, schedule: Q04DX003 (ip), vehicle: saline with Tween-80) 92 % of control; (dose: 300.0 mg/kg/injection, schedule: Q04DX003 (ip), vehicle: saline with Tween-80) 44 % of control.

On to `OC1OCC(COc2ccc(Cl)cc2)OC1O` (stereo not drawn), for which the T/C was 78 % of control under setting [4]; 75 % of control under setting [5]; 92 % of control (dose: 400.0 mg/kg/injection, schedule: Q04DX003 (ip), vehicle: saline with Tween-80).

Consider `[Cl][Pt+2][Cl].[NH-]C1CCC1.[NH2-]`, for which the T/C was -94 % of control (dose: 6.25 mg/kg/injection, schedule: Q04DX003 (sc), vehicle: saline) and -97 % of control (dose: 12.5 mg/kg/injection, schedule: Q04DX003 (sc), vehicle: saline).

Take `CCOC(=O)Nc1cc2c(c(N)n1)N=C(c1ccc3ccccc3c1)CN2`: the T/C by setting is: (dose: 3.75 mg/kg/injection, schedule: Q04DX003 (ip), vehicle: saline with Tween-80) 73 % of control; (dose: 7.5 mg/kg/injection, schedule: Q04DX003 (ip), vehicle: saline with Tween-80) 81 % of control; (dose: 15.0 mg/kg/injection, schedule: Q04DX003 (ip), vehicle: saline with Tween-80) 44 % of control; (dose: 30.0 mg/kg/injection, schedule: Q04DX003 (ip), vehicle: saline with Tween-80) 34 % of control.

Turning to `Cc1ccccc1N=C(c1ccccc1)C1C(=O)c2ccccc2C1=O`, the T/C reads like this: under setting [6], 117 % of control; under setting [7], 102 % of control; under setting [8], 103 % of control; (dose: 1200.0 mg/kg/injection, schedule: Q04DX003 (ip), vehicle: DMSO) 65 % of control.

On to `CCN(CC)c1cc(C(=O)O)cc(N(CC)CC)n1`, for which the T/C runs as follows: (dose: 50.0 mg/kg/injection, schedule: Q04DX003 (ip), vehicle: other) 155 % of control; (dose: 100.0 mg/kg/injection, schedule: Q04DX003 (ip), vehicle: other) 74 % of control.

`Cc1nc2c(N)cc(Cl)cc2[nH]1`: the T/C is 95 % of control under setting [4] and 45 % of control under setting [5].

Regarding `CCC(C(=O)O)C(=O)O.[NH2-].[NH2-].[Pt+2]`, the T/C runs as follows: (dose: 37.5 mg/kg/injection, schedule: Q04DX003 (sc), vehicle: saline) -27 % of control; (dose: 37.5 mg/kg/injection, schedule: Q04DX003 (sc), vehicle: suspension in saline) -100 % of control; (dose: 75.0 mg/kg/injection, schedule: Q04DX003 (sc), vehicle: saline) -100 % of control; (dose: 75.0 mg/kg/injection, schedule: Q04DX003 (sc), vehicle: suspension in saline) -100 % of control; (dose: 150.0 mg/kg/injection, schedule: Q04DX003 (sc), vehicle: saline) -100 % of control; (dose: 150.0 mg/kg/injection, schedule: Q04DX003 (sc), vehicle: suspension in saline) -100 % of control.

`CC(/C=C/C1OC(=O)C=CC1C)=C\C(C)C/C=C/C(C)=C/C(C)C(=O)C(C)C(O)C(C)C/C(C)=C/C(=O)O` (stereo not drawn): the T/C by setting is: (dose: 50.0 micrograms/kg/injection, schedule: Q04DX003 (ip), vehicle: alcohol) 104 % of control; (dose: 100.0 micrograms/kg/injection, schedule: Q04DX003 (ip), vehicle: alcohol) 87 % of control; (dose: 200.0 micrograms/kg/injection, schedule: Q04DX003 (ip), vehicle: alcohol) 81 % of control; (dose: 400.0 micrograms/kg/injection, schedule: Q04DX003 (ip), vehicle: alcohol) 111 % of control.

On to `C=CC1(C)CC(=O)C2(O)C(C)(O1)C(OC(C)=O)C(O)C1C(C)(C)CCC(O)C12C` (stereo not drawn), for which the T/C was 159 % of control (dose: 8.0 mg/kg/injection, schedule: Q04DX003 (ip), vehicle: DMSO); 100 % of control and 115 % of control (dose: 16.0 mg/kg/injection, schedule: Q04DX003 (ip), vehicle: DMSO); 109 % of control (dose: 64.0 mg/kg/injection, schedule: Q04DX003 (ip), vehicle: DMSO).

As for `CC(=O)C[n+]1ccc(C)cc1Sc1ccccc1C`, the T/C by setting is: (dose: 15.0 mg/kg/injection, schedule: Q04DX003 (ip), vehicle: suspension in saline) 111 % of control; (dose: 30.0 mg/kg/injection, schedule: Q04DX003 (ip), vehicle: suspension in saline) 97 % of control; (dose: 60.0 mg/kg/injection, schedule: Q04DX003 (ip), vehicle: suspension in saline) 80 % of control; (dose: 120.0 mg/kg/injection, schedule: Q04DX003 (ip), vehicle: suspension in saline) 102 % of control.

Turning to `CS(=O)(=O)CS(=O)(=O)OCCF`, the T/C reads like this: under setting [1], 104 % of control; under setting [2], 84 % of control; under setting [3], 69 % of control.

Turning to `COc1ccc(-c2cc(C(=O)Nc3cc(C(F)(F)F)cc(C(F)(F)F)c3)c3ccccc3n2)cc1`, the T/C under setting [6] was 103 % of control, the T/C under setting [7] is 70 % of control and the T/C under setting [8] is 78 % of control.

Take `C/C=C(\C)c1cc(=O)c2c(C)cc3c(c2o1)C(=O)c1c(O)c(C2CC(C)(N(C)C)C(OC(C)=O)C(C)O2)cc(C2CC(N(C)C)C(O)C(C)O2)c1C3=O` (stereo not drawn): the T/C (dose: 2.5 mg/kg/injection, schedule: Q04DX003 (sc), vehicle: saline) is 91 % of control; the T/C (dose: 40.0 mg/kg/injection, schedule: Q04DX003 (sc), vehicle: saline) is 39 % of control and 43 % of control.
